Results taken from patent US20090118350A1, “Biomarkers for Identifying Efficacy of Tegaserod in Patients with Chronic Constipation” (priority 2005, published 2009).

Tested on: patients with chronic constipation
Assay: Clinical trial, secondary efficacy RESP12: increase of 1 or more CSBM/week over baseline after 12 weeks of treatment, by subgroup and genotype
Format: in vivo, human
Conditions: for Odds Ratio: 6-mg bid vs placebo; for % Responders T6 / Odds Ratio (T6 v P) / % Responders: 6-mg bid
Protocol: Introduction. A clinical trial was performed to evaluate the efficacy of tegaserod (Zelmac®/Zelnorm™) at 6 mg bid (12 mg/day) or 2 mg bid (4 mg/day) vs. placebo by measuring the number of complete spontaneous bowel movements (CSBM) during the first 4 weeks of treatment. Secondary objectives included evaluating the number of CSBM during the entire 12-week treatment period, bowel habits, laxative use, and safety and tolerability issues. The clinical trial design consisted of a 2-week baseline period without medication, a 12-week, randomized, double-blind, placebo-controlled treatment period, and a 4-week withdrawal period without study medication. As part of the clinical trial, DNA was collected from patients at screening for pharmacogenetic analysis to evaluate genetic polymorphisms relating to drug targets and disease aetiology.
Clinical assessments. […] The primary efficacy endpoint evaluated was the increase of 1 or more CSBM/week over baseline after 4 weeks of treatment. A secondary endpoint evaluated in this genotyping study was RESP12, the increase of 1 of more CSBM/week over baseline after 12 weeks of treatment. Patients were classified as responders if they met these criteria and had completed at least 7 days of treatment. Additional secondary efficacy assessments were evaluated based on the weekly diary assessments, such as bothersome constipation, bothersome abdominal pain, and satisfaction with bowel habits at the end of the 12-week treatment period (using the baseline value as a co-variant for analysis).
Statistical analysis. Statistical analysis was performed using SAS version 8.2 (The SAS Institute, Cary, N.C., USA). Analysis methods included Fisher's Exact tests, analysis of Covariance (ANCOVA), logistic regression, and Mantel-Haenzel tests to determine odds ratios and 95% confidence intervals, with significance established at p<0.05. Calculation of linkage disequilibrium was performed using the GOLD (graphical overview of linkage disequilibrium) method described by Abecasis & Cookson, Bioinformatics 16: 182-3 (2000).
Secondary efficacy endpoint: response after 12 weeks of treatment. The same comparison as above was performed using the secondary efficacy endpoint of a mean increase of 1 or more CSBM/week over baseline after 12 weeks of treatment. The results for the 12 individual “high responder” SNPs are presented in TABLE 9 and the results using the comparison of individuals with or without at least one of the twelve SNPs is presented in TABLE 10.

[1] = All Caucasians (ITT, >=7 days), Age <65, M + F
[2] = All Caucasians (ITT, >=7 days), Age >=65, M + F
[3] = All Caucasians (ITT, >=7 days), Age All, Female
[4] = All Caucasians (ITT, >=7 days), Age All, M + F
[5] = All Caucasians (ITT, >=7 days), Age All, Male
[6] = All genotyped (ITT, >=7 days), Age <65, M + F
[7] = All genotyped (ITT, >=7 days), Age >=65, M + F
[8] = All genotyped (ITT, >=7 days), Age All, Female
[9] = All genotyped (ITT, >=7 days), Age All, M + F
[10] = All genotyped (ITT, >=7 days), Age All, Male
[11] = All patients (ITT, >=7 days), Age <65, M + F
[12] = All patients (ITT, >=7 days), Age >=65, M + F
[13] = All patients (ITT, >=7 days), Age All, Female
[14] = All patients (ITT, >=7 days), Age All, M + F
[15] = All patients (ITT, >=7 days), Age All, Male
[16] = Caucasians genotyped (ITT, >=7 days), Age <65, M + F
[17] = Caucasians genotyped (ITT, >=7 days), Age >=65, M + F
[18] = Caucasians genotyped (ITT, >=7 days), Age All, Female
[19] = Caucasians genotyped (ITT, >=7 days), Age All, M + F
[20] = Caucasians genotyped (ITT, >=7 days), Age All, Male
[21] = Female (All ages), 0-12 of the 12 SNPs
[22] = Female (All ages), 0 of the 12 SNPs
[23] = Female (All ages), 1-12 of the 12 SNPs

[H]/N=C(/NCCCCC)N/N=C/c1c[nH]c2ccc(OC)cc12 [tegaserod, Tegaserod]
Odds Ratio [1]: 2.8
Odds Ratio [2]: 1.4
Odds Ratio [3]: 2.5
Odds Ratio [4]: 2.5
Odds Ratio [5]: 2.5
Odds Ratio [6]: 2.6
Odds Ratio [7]: 2.6
Odds Ratio [8]: 2.5
Odds Ratio [9]: 2.6
Odds Ratio [10]: 2.9
Odds Ratio [11]: 2.3
Odds Ratio [12]: 1.6
Odds Ratio [13]: 2.2
Odds Ratio [14]: 2.3
Odds Ratio [15]: 2.6
Odds Ratio [16]: 3.0
Odds Ratio [17]: 2.3
Odds Ratio [18]: 2.8
Odds Ratio [19]: 2.8
Odds Ratio [20]: 3.0
% Responders T6 (0 of 14 SNPs): 39%
Odds Ratio (T6 v P) (0 of 14 SNPs): 1.2
% Responders T6 (>=1 of 14 SNPs): 54%
Odds Ratio (T6 v P) (>=1 of 14 SNPs): 4.4
% Responders T6 (AQP3 (1838) genotype CC): 47%
Odds Ratio (T6 v P) (AQP3 (1838) genotype CC): 2.7
% Responders T6 (AQP3 (1838) genotype CG): 49%
Odds Ratio (T6 v P) (AQP3 (1838) genotype CG): 2.5
% Responders T6 (AQP3 (1838) genotype GG): 64%
Odds Ratio (T6 v P) (AQP3 (1838) genotype GG): 8.1
% Responders [1]: 48%
% Responders [2]: 38%
% Responders [3]: 47%
% Responders [4]: 47%
% Responders [5]: 45%
% Responders [6]: 47%
% Responders [7]: 56%
% Responders [8]: 47%
% Responders [9]: 47%
% Responders [10]: 52%
% Responders [11]: 46%
% Responders [12]: 40%
% Responders [13]: 46%
% Responders [14]: 46%
% Responders [15]: 43%
% Responders [16]: 49%
% Responders [17]: 53%
% Responders [18]: 48%
% Responders [19]: 49%
% Responders [20]: 57%
% Responders T6 [21]: 48%
Odds Ratio (T6 v P) [21]: 2.8
% Responders T6 [22]: 36%
Odds Ratio (T6 v P) [22]: 1.4
% Responders T6 [23]: 61%
Odds Ratio (T6 v P) [23]: 5.5
% Responders T6 (HTR3B (3755) genotype AA): 49%
Odds Ratio (T6 v P) (HTR3B (3755) genotype AA): 3.0
% Responders T6 (HTR3B (3755) genotype AC): 47%
Odds Ratio (T6 v P) (HTR3B (3755) genotype AC): 2.3
% Responders T6 (HTR3B (3755) genotype CC): 67%
Odds Ratio (T6 v P) (HTR3B (3755) genotype CC): 5.1
% Responders T6 (HTR4 (1746) genotype CC): 44%
Odds Ratio (T6 v P) (HTR4 (1746) genotype CC): 3.1
% Responders T6 (HTR4 (1746) genotype CT): 49%
Odds Ratio (T6 v P) (HTR4 (1746) genotype CT): 2.6
% Responders T6 (HTR4 (1746) genotype TT): 70%
Odds Ratio (T6 v P) (HTR4 (1746) genotype TT): 3.2
% Responders T6 (HTR4 (3743) genotype AA): 48%
Odds Ratio (T6 v P) (HTR4 (3743) genotype AA): 3.7
% Responders T6 (HTR4 (3743) genotype AC): 52%
Odds Ratio (T6 v P) (HTR4 (3743) genotype AC): 4.7
% Responders T6 (HTR4 (3743) genotype CC): 78%
Odds Ratio (T6 v P) (HTR4 (3743) genotype CC): 8.2
% Responders T6 (HTR4 (3747) genotype AA): 41%
Odds Ratio (T6 v P) (HTR4 (3747) genotype AA): 2.7
% Responders T6 (HTR4 (3747) genotype AT): 54%
Odds Ratio (T6 v P) (HTR4 (3747) genotype AT): 3.1
% Responders T6 (HTR4 (3747) genotype TT): 65%
Odds Ratio (T6 v P) (HTR4 (3747) genotype TT): 3.0
% Responders T6 (HTR4 (3753) genotype CC): 45%
